Results from PMC9892005, “Principles of mitoribosomal small subunit assembly in eukaryotes” (Nature, 2022).

What was measured:
METTL17 = target: T1, METTL17 (Homo sapiens, UniProt Q9H7H0); assay: cryo-EM structure of native mtSSU assembly intermediates; assay type: binding; settings: architectural cofactor; METTL17 bound to pre-mtSSU
T1 construct: endogenous METTL17 with C-terminal linker-twinStrep-FLAG-10xHis-TEV-SPOT-3C-GFP tag, eluted with 3C protease
T1 sequence (Q9H7H0 28-456): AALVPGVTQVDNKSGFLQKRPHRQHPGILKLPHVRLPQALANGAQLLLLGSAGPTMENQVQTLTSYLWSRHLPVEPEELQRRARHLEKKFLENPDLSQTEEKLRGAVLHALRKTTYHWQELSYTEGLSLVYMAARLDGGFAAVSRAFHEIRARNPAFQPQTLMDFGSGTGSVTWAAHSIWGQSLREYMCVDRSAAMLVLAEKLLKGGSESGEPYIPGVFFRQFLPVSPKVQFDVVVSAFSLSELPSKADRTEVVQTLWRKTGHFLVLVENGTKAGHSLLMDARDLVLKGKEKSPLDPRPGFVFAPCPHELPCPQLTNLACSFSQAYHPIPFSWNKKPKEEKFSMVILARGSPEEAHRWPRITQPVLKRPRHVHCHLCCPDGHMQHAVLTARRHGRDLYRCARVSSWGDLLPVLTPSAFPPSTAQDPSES

Rsm22 = target: T2, Rsm22 (Saccharomyces cerevisiae, UniProt P36056); assay: as above; assay type: binding; settings: architectural cofactor; Rsm22 bound to pre-mtSSU
T2 construct: native yeast mtSSU assembly intermediates; untagged Rsm22 in Ccm1-purified states 1 and 2, C-terminal linker-TEV-alfa-3C-mCherry tag (cleaved) in state 3
T2 sequence (P36056 16-628): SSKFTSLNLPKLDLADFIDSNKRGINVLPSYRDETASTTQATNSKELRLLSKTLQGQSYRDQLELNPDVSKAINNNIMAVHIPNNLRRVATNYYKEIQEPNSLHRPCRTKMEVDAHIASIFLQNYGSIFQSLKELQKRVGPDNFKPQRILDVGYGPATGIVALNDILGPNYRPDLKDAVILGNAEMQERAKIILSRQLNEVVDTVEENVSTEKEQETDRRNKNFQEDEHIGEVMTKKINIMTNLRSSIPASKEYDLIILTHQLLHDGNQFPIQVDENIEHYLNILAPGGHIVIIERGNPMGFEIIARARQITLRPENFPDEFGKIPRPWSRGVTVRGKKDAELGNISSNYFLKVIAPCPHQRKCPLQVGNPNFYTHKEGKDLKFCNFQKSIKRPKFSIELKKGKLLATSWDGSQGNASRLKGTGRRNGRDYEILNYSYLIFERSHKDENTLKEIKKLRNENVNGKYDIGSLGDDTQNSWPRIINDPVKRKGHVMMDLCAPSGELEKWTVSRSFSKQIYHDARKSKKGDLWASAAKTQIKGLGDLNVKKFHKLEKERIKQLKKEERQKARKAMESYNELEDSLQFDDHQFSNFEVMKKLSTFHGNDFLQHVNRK

## [S]12[Fe]3[S]4[Fe]1[S]1[Fe]2[S]3[Fe]41 [Fe4S4 cluster]
METTL17
  cryo-EM structure of native mtSSU assembly intermediates: identified an Fe4S4 cluster as an architectural cofactor of the Rsm22 (METTL17) protein family
Rsm22
  cryo-EM structure of native mtSSU assembly intermediates: identified an Fe4S4 cluster as an architectural cofactor of the Rsm22 (METTL17) protein family
